# Assays:
# Type in all cases: cell-based
# [1] = molecular target: T1, Lipomyces starkeyi LST1_205437 transporter, wild type, SEQ ID NO: 4 (Lipomyces starkeyi, UniProt A0A1E3QE37); assay: C14 labeled sugar uptake assay (zero-trans influx), SR8D8 expressing LST1_205437; conditions: initial xylose uptake (20 s), 30° C., pH 6.5
# T1 construct: whole-cell 14C sugar uptake
# T1 sequence (A0A1E3QE37 1-603): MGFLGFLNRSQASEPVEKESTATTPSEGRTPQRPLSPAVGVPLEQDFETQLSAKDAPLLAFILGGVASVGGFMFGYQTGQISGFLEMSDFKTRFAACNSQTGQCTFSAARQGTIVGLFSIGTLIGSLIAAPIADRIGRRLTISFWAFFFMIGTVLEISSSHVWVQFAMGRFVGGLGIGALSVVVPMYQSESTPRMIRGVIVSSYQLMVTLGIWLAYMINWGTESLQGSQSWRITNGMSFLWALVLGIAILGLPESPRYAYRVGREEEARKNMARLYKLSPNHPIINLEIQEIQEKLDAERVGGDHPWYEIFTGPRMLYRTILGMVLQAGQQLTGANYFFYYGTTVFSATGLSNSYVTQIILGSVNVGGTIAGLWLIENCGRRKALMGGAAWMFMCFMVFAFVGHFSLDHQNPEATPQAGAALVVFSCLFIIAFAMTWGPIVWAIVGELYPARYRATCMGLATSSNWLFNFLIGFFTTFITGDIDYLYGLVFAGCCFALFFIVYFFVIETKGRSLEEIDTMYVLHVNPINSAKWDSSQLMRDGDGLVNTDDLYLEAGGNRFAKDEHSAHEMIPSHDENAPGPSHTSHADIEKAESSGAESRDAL
# Experimental: (§1) FIG. 7A illustrates sugar uptake kinetics by SR8D8. FIG. 7B illustrates sugar uptake kinetics by SR8D8 expressing AtSWEET1. FIG. 7C illustrates sugar uptake kinetics by SR8D8 expressing ScGal2. FIG. 7D illustrates sugar uptake kinetics by SR8D8 expressing AtSWEET7. FIG. 7E illustrates sugar uptake kinetics by SR8D8 expressing LST1_205437. Initial xylose uptake (20 s) was measured at 30° C. over a concentration range of 1 to 500 mM xylose. FIG. 7F illustrates sugar uptake kinetics by SR8D8. FIG. 7G illustrates sugar uptake kinetics by SR8D8 expressing AtSWEET1. FIG. 7H illustrates sugar uptake kinetics by SR8D8 expressing ScGal2. FIG. 7I illustrates sugar uptake kinetics by SR8D8 expressing AtSWEET7. FIG. 7J illustrates sugar uptake kinetics by SR8D8 expressing LST1_205437. Initial glucose uptake (5 s) was measured at 30° C. over a concentration range of 0.2 to 100 mM glucose. Curve fitting for Michaelis-Menten kinetics was applied to data of three independent measurements at each concentration.
# (§2) A xylose fermenting S. cerevisiae yeast (SR8) with HXT1-7Δ, GAL2Δ deletions was used for transporter screening and characterization (SR8D8). SR8D8 was grown in YPE medium/plate (10 g/L yeast extract, 20 g/L peptone, and 5 g/L ethanol). […] Biomass was calculated from the OD600 measured using a Biomate 5 UV-visible spectrophotometer (Fisher, NY, USA). All growth rates were measured using a Bioscreen C plate reader system (Growth Curves USA, Piscataway, NJ, USA). […]
# (§3) SR8D8 containing the respective plasmid was grown on selective YPE medium to an OD600 of 1-1.5, harvested by centrifugation, and washed twice in ice-cold uptake buffer (100 mM potassium phosphate, pH 6.5). […] Radioactivity was analyzed in a Beckman-Coulter LS6500 multi-purpose liquid scintillation counter (Beckman-Coulter, CA, USA).
# (§4) Uptake was measured at sugar concentrations 0.2, 1, 5, 25, and 100 mM for glucose and 1, 5, 25, 66, 100, 200, and 500 mM for xylose. Inhibition of xylose uptake by glucose was measured at 25, 66, and 100 mM xylose with additional 25 and 100 mM unlabeled glucose.
# [2] = molecular target: T2, Arabidopsis thaliana AtSWEET7 transporter, wild type (Table 2: SEQ ID NO: 3; FIG. 12: SEQ ID NO:2) (Arabidopsis thaliana, UniProt Q8LBF7); assay: C14 labeled sugar uptake assay (zero-trans influx), SR8D8 expressing AtSWEET7; conditions: initial xylose uptake (20 s), 30° C., pH 6.5; cell wet weight; ± SEM
# T2 construct: expressed in transfected cells; host or cells: S. cerevisiae SR8D8 (SR8 with HXT1-7 and GAL2 deleted), plasmid p42K-GPD1p-CYC1t
# T2 sequence (Q8LBF7 1-258): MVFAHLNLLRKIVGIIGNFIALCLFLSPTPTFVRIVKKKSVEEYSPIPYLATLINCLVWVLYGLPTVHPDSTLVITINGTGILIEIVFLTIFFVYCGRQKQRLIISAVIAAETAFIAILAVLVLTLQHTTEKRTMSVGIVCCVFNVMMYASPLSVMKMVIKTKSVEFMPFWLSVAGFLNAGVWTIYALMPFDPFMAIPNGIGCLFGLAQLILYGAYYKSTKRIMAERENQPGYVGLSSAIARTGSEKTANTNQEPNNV
# Experimental: as §1, with “Curve fitting for Michaelis-Menten kinetics was applied to data of three independent measurements at each concentration.” left out
# as §2, with “(SR8D8).” for “(SR8D8). SR8D8 was grown in YPE medium/plate (10 g/L yeast extract, 20 g/L peptone, and 5 g/L ethanol).”
# (§5) Uptake was measured at sugar concentrations 0.2, 1, 5, 25, and 100 mM for glucose and 1, 5, 25, 66, 100, 200, and 500 mM for xylose. […]
# [3] = molecular target: T3, Arabidopsis thaliana AtSWEET1 transporter, wild type, SEQ ID NO: 1 (Arabidopsis thaliana, UniProt Q8L9J7); assay: C14 labeled sugar uptake assay, SR8D8 expressing AtSWEET1; conditions: in words
# T3 construct: whole-cell 14C sugar uptake
# T3 sequence (Q8L9J7 1-247): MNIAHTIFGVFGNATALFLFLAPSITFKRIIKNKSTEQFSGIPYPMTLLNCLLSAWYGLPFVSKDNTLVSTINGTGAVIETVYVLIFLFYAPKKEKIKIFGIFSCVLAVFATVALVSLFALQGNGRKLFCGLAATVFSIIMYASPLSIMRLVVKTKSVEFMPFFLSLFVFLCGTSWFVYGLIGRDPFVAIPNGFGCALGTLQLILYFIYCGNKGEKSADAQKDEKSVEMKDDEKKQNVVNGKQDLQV
# Experimental: as §1, with “Curve fitting for Michaelis-Menten kinetics was applied to data of three independent measurements at each concentration.” left out
# as §2, with “(SR8D8).” for “(SR8D8). SR8D8 was grown in YPE medium/plate (10 g/L yeast extract, 20 g/L peptone, and 5 g/L ethanol).”
# as §5
# [4] = molecular target: T4, Saccharomyces cerevisiae ScGal2 (Gal2) transporter, SEQ ID NO:32 (Saccharomyces cerevisiae, UniProt P13181); assay: C14 labeled sugar uptake assay (zero-trans influx), SR8D8 expressing ScGal2; conditions: initial xylose uptake (20 s), 30° C., pH 6.5; cell wet weight; ± SEM
# T4 construct: expressed in transfected cells; host or cells: S. cerevisiae SR8D8 (SR8 with HXT1-7 and GAL2 deleted), plasmid p42K-GPD1p-CYC1t
# T4 sequence (P13181 1-574): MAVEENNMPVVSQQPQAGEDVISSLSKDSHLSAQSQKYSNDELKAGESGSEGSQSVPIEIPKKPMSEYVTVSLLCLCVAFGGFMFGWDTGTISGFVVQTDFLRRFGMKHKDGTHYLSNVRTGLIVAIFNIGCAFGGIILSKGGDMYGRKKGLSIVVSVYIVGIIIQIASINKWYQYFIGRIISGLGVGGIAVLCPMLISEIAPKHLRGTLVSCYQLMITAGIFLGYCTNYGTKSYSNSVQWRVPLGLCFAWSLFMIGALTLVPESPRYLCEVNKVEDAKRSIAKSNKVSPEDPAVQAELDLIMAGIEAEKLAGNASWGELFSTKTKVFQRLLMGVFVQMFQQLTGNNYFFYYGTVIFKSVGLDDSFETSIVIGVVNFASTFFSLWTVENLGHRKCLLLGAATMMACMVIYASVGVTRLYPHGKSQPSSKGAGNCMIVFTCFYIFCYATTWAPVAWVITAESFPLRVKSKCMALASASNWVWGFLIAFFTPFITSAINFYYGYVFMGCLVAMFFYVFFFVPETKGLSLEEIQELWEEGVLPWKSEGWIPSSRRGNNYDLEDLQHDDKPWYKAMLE
# Experimental: as §1, §2, §3, §4
compound,measurement,setting,value
"OC1OC[C@@H](O)[C@H](O)[C@H]1O (stereo partly drawn) [Xylose, D-xylose]",Vmax (xylose),[1],76.8 nmol/min/mg
same,Vmax (xylose),"[1]; cell wet weight, ± SEM",76.8 ± 9.0 nmol/min/mg
same,Vmax (xylose),[2],100.9 ± 14.8 nmol/min/mg
same,xylose transport kinetics,[3],very poor xylose transport kinetics
same,Vmax (xylose),[4],88.7 ± 10.0 nmol/min/mg

# From patent US12686846B2, “Plant sweet and yeast MSF transporter capable of transporting different sugars simultaneously” (THE BOARD OF TRUSTEES OF THE UNIVERSITY OF ILLINOIS, priority 2020, dated 2026)
